Reference: PMC11390726, “Automated design of multi-target ligands by generative deep learning” (Nature Communications, 2024)
Entries after “also recorded” stand apart in the source; their conditions may differ.

Experiments:
AT1 [1] = target: T1, AT1 (Homo sapiens, UniProt P30556); set-up: method as in earlier work; conditions: fine-tuning set; BindingDB; read-out: potency on target (IC50 for AT1); cited from earlier work
T1 construct: expressed in transfected cells
T1 sequence (P30556 1-359): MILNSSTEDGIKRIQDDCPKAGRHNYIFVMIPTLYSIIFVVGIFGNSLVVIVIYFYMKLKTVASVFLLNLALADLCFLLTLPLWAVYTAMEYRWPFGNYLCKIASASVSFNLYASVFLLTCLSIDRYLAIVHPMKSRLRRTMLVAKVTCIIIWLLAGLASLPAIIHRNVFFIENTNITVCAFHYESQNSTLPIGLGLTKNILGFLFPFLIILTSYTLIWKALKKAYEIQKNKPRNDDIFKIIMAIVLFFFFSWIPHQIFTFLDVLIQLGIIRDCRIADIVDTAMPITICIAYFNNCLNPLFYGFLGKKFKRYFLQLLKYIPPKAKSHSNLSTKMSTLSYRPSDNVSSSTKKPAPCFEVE

PPARδ [2] = test system: PPARδ; set-up: method as in earlier work; conditions: fine-tuning set; BindingDB; read-out: potency on target (EC50 for PPARδ); cited from earlier work
sEH = target: T2, sEH (Homo sapiens, UniProt P34913); assay: sEH enzyme activity assay with fluorogenic substrate PHOME; assay type: biochemical; conditions: mean, n ≥ 3
T2 construct: His tag (inferred from HisTrap purification with imidazole elution); made in house; own inference
T2 sequence (P34913 1-555): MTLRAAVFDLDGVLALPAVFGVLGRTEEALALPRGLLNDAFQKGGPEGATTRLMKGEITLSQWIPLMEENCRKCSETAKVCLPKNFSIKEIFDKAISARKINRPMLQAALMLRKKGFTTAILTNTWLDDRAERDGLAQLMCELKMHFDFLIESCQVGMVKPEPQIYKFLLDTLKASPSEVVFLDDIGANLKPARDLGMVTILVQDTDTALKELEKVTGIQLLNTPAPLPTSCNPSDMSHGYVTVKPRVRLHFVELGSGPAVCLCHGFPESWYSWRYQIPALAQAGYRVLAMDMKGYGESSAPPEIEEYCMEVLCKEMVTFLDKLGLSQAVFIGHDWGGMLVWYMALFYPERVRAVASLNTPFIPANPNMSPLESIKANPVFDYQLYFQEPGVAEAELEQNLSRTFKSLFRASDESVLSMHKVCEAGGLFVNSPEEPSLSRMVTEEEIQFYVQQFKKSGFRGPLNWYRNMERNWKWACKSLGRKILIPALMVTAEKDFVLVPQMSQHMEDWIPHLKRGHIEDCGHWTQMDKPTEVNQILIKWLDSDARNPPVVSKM
From the text: (§1) Compound 7 was originally designed with tert-butyloxy motif which was replaced by tert-butyl for improved chemical stability. The dual ligand candidates were characterized in functional assays for the targets of interest using cellular Gal4-hybrid reporter gene assays[43] to determine FXR, THRβ and PPARδ modulation and an enzyme activity assay[44] with the fluorogenic substrate PHOME to test sEH inhibition (Table 1). In vitro characterization of the CLM designed dual FXR/sEH modulators 1–3 confirmed engagement of both targets by all three compounds with sub-micromolar to low micromolar potencies. […] All designed PPARδ/sEH modulators (7–9) were confirmed as dual ligands of the intended targets. 7 emerged as remarkably potent sEH inhibitor endowed with micromolar PPARδ agonist activity.
Soluble epoxide hydrolase (sEH) was purified as described by Hahn et al.[68] and Lukin et al.[69], respectively. Protein expression was carried out in 500 ml ZYP5052 autoinduction medium containing Kanamycin (100 mg/L) with lactose uptake-dependent induction. The fermentation procedure started at 37 °C and 200 rpm until the OD600 reached approximately 1.0. Then the temperature was reduced to 16 °C. After 24–36 h the cells (OD600 ≈ 15.0) were harvested by centrifugation at 5000 × g (4 °C, 20 min). Pellets were resuspended in a resuspension buffer containing Tris (50 mM), NaCl (0.5 M) and MgCl2 (10 mM) at pH 8 and sonicated twice for 15 s on ice. The sonicated suspension was centrifuged (18,000 × g, 30 min, 4 °C) and the supernatant was ultracentrifuged (100,000 × g, 1 h 10 min, 4 °C). The ultracentrifugation supernatant was loaded on a 5 ml HisTrap® FF (GE Healthcare, München, Germany) column at a flow rate of 2 ml/min and washed with washing buffer containing Tris (50 mM), NaCl (0.5 M), MgCl2 (10 mM), imidazole (20 mM) and DTT (3 mM) at pH 8, and eluted at 120 mM imidazole. The fractions containing hsEH after SDS-PAGE fraction analysis were pooled. The identity of hsEH was confirmed by Western Blotting and hsEH hydrolase activity assay. The inhibitory potency of the compounds was determined using a fluorescence-based enzyme activity assay in which PHOME (3-phenyl-cyano(6-methoxy-2-naphthalenyl)methylester-2-oxiraneacetic acid) is metabolized by sEH hydrolase towards a fluorescent naphthalene aldehyde. Dilution series of the compounds were incubated for 30 min with recombinant sEH (final protein concentration 3 nM). Subsequently, the fluorogenic substrate PHOME at final concentration of 50 μM was added, and the fluorescence was measured every minute for 45 min using a Tecan plate reader (ex: 360 nm, em: 465 nm; bandwidth 35 nm). Inhibition in percent was plotted against the logarithmic test compound concentration and IC50-values were calculated using the “log(Inhibitor) vs. Response – Variable slope (four parameters)” equation in GraphPad Prism 7.

AT1 [3] = target: T1, AT1; assay: IP-One assay for AT1 in stably transfected CHO-K1 cells; assay type: cell-based; conditions: cellular IP-One assay; mean, n ≥ 3
Procedure: (§2) CHO-K1 cells (DSMZ, ACC110) were cultured at 5% CO2 and 37 °C in full growth medium (Ham’s F-12 medium supplemented with 10% fetal calf serum (FCS), penicillin (100 U/mL) and streptomycin (100 µg/mL)). For harvesting cells were incubated with Trypsin/EDTA. IP-One assay for AT1 and FFAR1. To investigate the ligand dependent activation of the two GPCRs, inositol mono-phosphate (IP-One) accumulation was monitored using an HTRF based displacement assay between FRET acceptor coupled IP-One and Terbium cryptate coupled anti-IP-One antibody (IP-One assay kit, Cisbio Bioassays, Codolet, France). AT1: the IP-One assay for AT1 was performed according to the protocol published by Hernandez-Olmos et al.[66] In brief, by using the sleeping beauty method a CHO-K1 cell line was generated which stably overexpresses AT1 isoform 1 and GNA11 (G-protein subunit α 11) as well as cells only overexpressing the GNA11 without any GPCR, as control. Cells were seeded into white tissue culture 384-well plates (Greiner Bio-One, Frickenhausen, Germany) at 15,000 cells/well and incubated overnight at 37 °C and 5% CO2. […] Antagonist activity of compounds was measured with parallel stimulation with 10 nM [Val5]-Angiotensin II. […] A full dose-response curve with FFAR1 reference agonist GW9508 was measured as control for assay performance. […]

FFAR1 = target: T3, FFAR1 (Homo sapiens, UniProt O14842); assay: IP-One assay for FFAR1 in stably transfected CHO-K1 cells; assay type: cell-based; conditions: cellular IP-One assay; mean, n ≥ 3
T3 construct: expressed in transfected cells
Procedure: as §2

PPARδ [4] = target: T4, PPARδ (Homo sapiens, UniProt Q03181); assay: Gal4-hybrid reporter gene assay PPARδ; assay type: cell-based; conditions: mean, n ≥ 3
T4 construct: expressed in transfected cells; host or cells: HEK293T
T4 sequence (Q03181 211-439 limits assumed): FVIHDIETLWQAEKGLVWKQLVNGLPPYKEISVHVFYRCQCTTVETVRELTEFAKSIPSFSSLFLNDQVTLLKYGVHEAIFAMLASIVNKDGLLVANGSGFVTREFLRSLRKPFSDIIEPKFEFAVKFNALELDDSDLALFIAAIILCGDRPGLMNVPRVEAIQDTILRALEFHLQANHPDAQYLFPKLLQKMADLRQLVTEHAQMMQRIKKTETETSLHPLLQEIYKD
From the text: as §1
HEK293T cells (ATCC, CRL-1573) were cultured in Dulbecco’s modified eagle medium (DMEM), high glucose, supplemented with 10% FCS, sodium pyruvate (1 mM), penicillin (100 U/mL), and streptomycin (100 µg/mL) to 70–80% confluence at 37 °C and 5% CO2 and seeded in clear 96-well plates with a density of 40,000 cells/well. After 24 h, the medium was changed to Opti-MEM without supplements. Transient transfection was performed using Lipofectamine LTX reagent (Invitrogen, Carlsbad, CA, USA) according to the manufacturer’s protocol with pFR-Luc (100 ng/well) as reporter plasmid, pRL-SV40 (2 ng/well) for normalization of transfection efficiency and cell growth, and one pFA-CMV-hNR-LBD clone coding for the hinge region and ligand binding domain (LBD) of the NR of interest. […] After overnight (14–16 h) incubation, luminescence was measured using the Dual-Glo® Luciferase Assay System (Promega, Madison, WI, USA) according to the manufacturer’s protocol with a Tecan Spark® 10 M multimode microplate reader. Relative light units (RLU) for normalization of transfection efficiency and cell growth were calculated by dividing firefly luminescence by renilla luminescence and multiplication by 1000. […]

THRβ = test system: THRβ; set-up: method as in earlier work; conditions: fine-tuning set; BindingDB; read-out: potency on target (EC50 for THRβ); cited from earlier work

T3 sequence (O14842 whole entry): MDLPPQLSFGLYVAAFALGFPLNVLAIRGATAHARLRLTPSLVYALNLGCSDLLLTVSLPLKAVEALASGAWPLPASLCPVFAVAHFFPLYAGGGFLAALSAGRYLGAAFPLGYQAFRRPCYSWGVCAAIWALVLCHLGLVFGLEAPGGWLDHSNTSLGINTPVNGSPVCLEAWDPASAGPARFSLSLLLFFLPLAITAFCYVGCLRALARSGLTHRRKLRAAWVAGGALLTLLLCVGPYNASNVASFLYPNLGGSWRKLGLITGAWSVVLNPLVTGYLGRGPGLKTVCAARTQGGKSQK

## CCCCc1ncc(/C=C(\Cc2cccs2)C(=O)O)n1Cc1ccc(C(=O)O)cc1
AT1 [1]
  IC50: 2 nM

## CCO[C@H](COc1ccc(C(F)(F)F)cc1)CSc1ccc(OCC(=O)O)c(C)c1
PPARδ [2]
  EC50: 2 nM

## O=C(O)c1ccc(OC2CCCN(C(=O)NCc3ccc(Cl)cc3Cl)CC2)cc1 (stereo not shown) [Compound 10]
sEH
  IC50: 20 nM
AT1 [3]
  AT1: activity: inactive

## CCC(c1ccc(C(=O)O)cc1)c1cccc(NC(=O)Nc2ccc(OC(F)(F)F)cc2)c1 (stereo not shown) [Compound 11]
sEH
  IC50: 61 nM
FFAR1
  FFAR1: activity: inactive

## O=C(O)CCc1ccc(OC2CCN(C(=O)NCc3c(Cl)cc(Cl)cc3Cl)CC2)cc1 [Compound 9]
sEH
  IC50: 270 nM
PPARδ [4]
  PPARδ: fold act. at 80 µM: 3.0 fold

## CC(C)c1onc(-c2c(Cl)cccc2Cl)c1COc1ccc(CNc2ccc(CC(=O)O)cc2)c(Cl)c1
PPARδ [2]
  EC50: 2000 nM

## CC(C)(C)c1ccc(NC(=O)N[C@H]2CC[C@H](Oc3ccc(CCC(=O)O)cc3)CC2)cc1 [Compound 7]
sEH
  IC50: 17 nM
PPARδ [4]
  EC50: 10000 nM

## COc1ccc2c(c1OCc1ccccc1)CC(C(=O)O)N(C(=O)C(c1ccccc1)c1ccccc1)C2 (stereo not shown)
AT1 [1]
  IC50: 1000 nM

## O=C(O)CCc1ccc(OC2CCCN(C(=O)NCc3c(Cl)cc(Cl)cc3Cl)CC2)cc1 (stereo not shown) [Compound 8]
sEH
  IC50: 200 nM
PPARδ [4]
  PPARδ: fold act. at 80 µM: 6.7 fold

## CCCCc1cnc(C(=O)O)n1Cc1ccc(-c2ccccc2C)cc1
AT1 [1]
  IC50: 3 nM

## CC#CC(CC(=O)O)c1ccc(OCc2cccc(-c3ccccc3C(=O)O)c2)cc1 (stereo not shown) [Compound 12]
AT1 [3]
  AT1: activity: no effect; also recorded: inactive
FFAR1
  EC50: 8500 nM

## O=C(O)Cc1cc(Cl)c(Oc2ccc(O)c(C(=O)NCC(c3ccccc3)c3ccccc3)c2)c(Cl)c1
THRβ
  EC50: 0.5 nM
